Reference: patent US9539248B2, “Agent for ameliorating chronic obstructive pulmonary disease” (LTT BIO-PHARMA CO., LTD., priority 2012, dated 2017)

Key:
[1] = test system: porcine pancreatic elastase-induced COPD model; assay: Test Example 8: rectal administration in porcine pancreatic elastase-induced COPD model, inflammatory cells in alveolar lavage fluid; type: in vivo, ICR mice; settings: intrarectal once daily, lavage fluid collected 3 days later (FIG. 21)
Description: 100 μg of porcine pancreatic elastase per mouse was administered to 4 to 6 week old ICR mice once via the airway to induce damage in the lung. Different concentrations of mepenzolate were administered intrarectally once daily. The alveolar lavage fluid was collected 3 days later and the total cell count was counted. The neutrophil count was also counted by dyeing the cells by a Diff-Quick technique.

[2] = test system: porcine pancreatic elastase-induced pulmonary emphysema and altered lung function; assay: Test Example 1: porcine pancreatic elastase-induced pulmonary emphysema and altered lung function, mepenzolate via the airway or by inhalation; type: in vivo, ICR mice; settings: for damage in the alveolar wall: H&E sections; for mean linear intercept (MLI): PPE 100 μg per mouse
Description: 100 μg of porcine pancreatic elastase per mouse and different doses of mepenzolate were dissolved in 30 μL of phosphate buffered saline (PBS) per mouse and this solution was injected into the airway of a mouse anesthetized with chloral hydrate by a micropipette. A mouse was placed in a chamber. Then, the whole amount of a mepenzolate solution prepared by dissolving mepenzolate in 10 mL of PBS was sprayed onto the mouse over 30 minutes by using an ultrasonic nebulizer (NE-U07, manufactured by OMRON Corporation) that was connected to the chamber. Lung function and airway resistance were measured by using a computer-controlled small animal ventilator (FlexiVent, SCIREQ Scientific Respiratory Equipment Inc.). A mouse was anesthetized with chloral hydrate, a tracheostomy was performed, and an 8 mm metal tube was inserted into the trachea. Ventilation was performed on the mouse with a volume of 8.7 mL/kg, a positive end-expiratory pressure of 2 to 3 cmH2O, and a respiratory rate of 150 times/min. Total respiratory system elastance was measured by a snap shot technique and tissue elastance was measured by a forced oscillation technique. Data analysis was conducted by using FlexiVent software. A lung damage model for pulmonary emphysema and altered lung function was generated by administering 100 μg of porcine pancreatic elastase per mouse to 4 to 6 week old ICR mice once via the airway. Different doses of mepenzolate were administered to these mice via the airway (μg/kg) or by inhalation (μg/chamber) once daily for 14 days (Day 0 to Day 13) and the mice were euthanized on Day 14. Sections of the lung tissues were prepared and dyed with H&E (hematoxylin-eosin staining), and stained images were obtained by electron microscopy. The airspace size in the cells in the H&E stained images obtained above was measured as a mean linear intercept (MLI; μm). Then, on Day 14, the total respiratory system elastance and the tissue elastance were measured by the method described in the above-mentioned “Measurement of Elastance.”

[3] = test system: poor lung function induced by porcine pancreatic elastase; assay: Test Example 3: FEV0.05/FVC in poor lung function induced by porcine pancreatic elastase, compared with muscarinic antagonists; type: in vivo, ICR mice; settings: 38 μg/kg by airway administration once daily for 11 days, measured on Day 14 (FIG. 10)
Description: Measurement of a ratio of forced expiratory volume (FEV) in the first 0.05 seconds to forced vital capacity (FVC) (FEV0.05/FVC) was performed by using the above-mentioned computer-controlled small animal ventilator connected to a negative pressure reservoir (SCIREQ Scientific Respiratory Equipment Inc.). FEV0.05/PVC was determined by using the FlexiVent software. As with Test Example 1, 4 to 6 week old ICR mice were treated with porcine pancreatic elastase. […] On Day 14, FEV0.05/FVC was measured by the method described in the above-mentioned “Measurement of FEV0.05/FVC.”

[4] = test system: porcine pancreatic elastase-induced inflammation; assay: Test Example 5: porcine pancreatic elastase-induced inflammation (BALF cell counts and cytokines); type: in vivo, ICR mice
Description: Different doses of mepenzolate were administered to 4 to 6 week old ICR mice once via the airway. 100 μg of porcine pancreatic elastase per mouse was administered one hour after administration of mepenzolate. Bronchoalveolar lavage fluid (BALF) was collected from the lung 24 hours after administration of porcine pancreatic elastase and a total cell count and a neutrophil count were measured. Furthermore, the total number of TNF-α, MIP-2, MCP-1, or KC in the bronchoalveolar lavage fluid when 38 μg/kg of mepenzolate was administered via the airway was measured by an ELISA method.

[5] = test system: methacoline-induced airway constriction; assay: Test Example 9: rectal administration in methacoline-induced airway constriction; type: in vivo, mice; settings: different doses (mg/kg) (FIG. 25)
Description: Increase in airway resistance induced by methacoline was measured. 4 to 6 week old ICR mice received 1 mg/mL methacoline by nebulization over 20 seconds and this was repeated five times. After administration of methacoline was completed, the airway resistance was measured by a snap shot technique. All the data were analyzed by using FlexiVent software. Different doses (mg/kg) of mepenzolate were administered intrarectally and airway resistance induced by methacoline was measured by a similar method to that in Test Example 4.

[6] = test system: porcine pancreatic elastase pretreatment-induced pulmonary emphysema and altered lung function; assay: Test Example 2: porcine pancreatic elastase pretreatment-induced pulmonary emphysema and altered lung function; type: in vivo, ICR mice
Description: 100 μg of porcine pancreatic elastase per mouse and different doses of mepenzolate were dissolved in 30 μL of phosphate buffered saline (PBS) per mouse and this solution was injected into the airway of a mouse anesthetized with chloral hydrate by a micropipette.
(§1) Lung function and airway resistance were measured by using a computer-controlled small animal ventilator (FlexiVent, SCIREQ Scientific Respiratory Equipment Inc.).
A mouse was anesthetized with chloral hydrate, a tracheostomy was performed, and an 8 mm metal tube was inserted into the trachea. Ventilation was performed on the mouse with a volume of 8.7 mL/kg, a positive end-expiratory pressure of 2 to 3 cmH2O, and a respiratory rate of 150 times/min.
Total respiratory system elastance was measured by a snap shot technique and tissue elastance was measured by a forced oscillation technique.
After 4 to 6 week old ICR mice were used and treated with porcine pancreatic elastase by a similar method to that in Test Example 1, different doses (μg/kg) of mepenzolate were administered to these mice via the airway once daily from 14 days to 20 days after the treatment. Then, the mice were euthanized, sections of the lung tissues were prepared and dyed with H&E, and stained images were obtained by electron microscopy.
Subsequently, the airspace size in the cells in the obtained H&E stained images was measured as a mean linear intercept.
Then, on Day 21, the total respiratory system elastance and the tissue elastance were measured by a similar method to that in Test Example 1.

[7] = test system: porcine pancreatic elastase-induced pulmonary emphysema and altered lung function; assay: Test Example 7: oral administration in porcine pancreatic elastase-induced pulmonary emphysema and altered lung function; type: in vivo, ICR mice; settings: oral administration once daily for 14 days, different doses (mg/kg) (FIG. 18 to 20)
Description: (§2) 100 μg of porcine pancreatic elastase per mouse was administered to 4 to 6 week old ICR mice once via the airway. Then, different doses (mg/kg) of mepenzolate were administered to the mice orally once daily for 14 days. After administration, sections of the lung tissues were excised. Subsequently, the sections were subjected to H&E dyeing, MLI measurement, and elastance measurement performed by a similar method to that in Test Example 1.

[8] = test system: porcine pancreatic elastase-induced COPD model; assay: Test Example 8: rectal administration in porcine pancreatic elastase-induced COPD model, lung damage (H&E, MLI, elastance, FEV0.05/FVC); type: in vivo, ICR mice; settings: intrarectal once daily for 14 days, different doses (mg/kg) (FIG. 22 to 24)
Description: as §2, with “airway to induce damage in the lung. Furthermore,” for “airway. Then,”, “intrarectally” for “orally”

[9] = test system: pulmonary emphysema and altered lung function resulting from smoking; assay: Test Example 6: pulmonary emphysema and altered lung function resulting from smoking; type: in vivo, DBA/2 mice; settings: cigarette smoke 6 weeks
Description: Three-times-a-day exposure to smoking and once-a-day coadministration of 38 μg/kg of mepenzolate were performed on 5 week old DBA/2 mice, 5 days a week (Monday to Friday) for 6 weeks. The mice were subjected to only smoking during the final week. The mice were subjected to smoking by the method described below. 15 to 20 mice were placed in a 45 L chamber and the chamber was connected to a cigarette smoke generator. Commercially available unfiltered cigarette that produced 28 mg of tar and 2.3 mg of nicotine were used. The mice were exposed to smoke of one cigarette over 35 minutes, which was repeated three times a day for five days a week. This was continued for 6 weeks. The mice were made to inhale the cigarette smoke 15 times over a 5-minute period. Mepenzolate was administered to the mice by inhalation. After smoking was completed, the mice were euthanized, sections of the lung tissues were prepared and dyed with H&E, and stained images were obtained by electron microscopy. The airspace size in the cells in the H&E stained images obtained above was measured as a mean linear intercept. Then, the total respiratory system elastance and the tissue elastance were measured by a similar method to that in Test Example 1.

[10] = test system: methacholine-induced airway constriction; assay: Test Example 4: methacholine-induced airway constriction, airway administration; type: in vivo, ICR mice
Description: as §1
Increase in airway resistance induced by methacoline was measured. 4 to 6 week old ICR mice received 1 mg/mL methacoline by nebulization over 20 seconds and this was repeated five times. After administration of methacoline was completed, the airway resistance was measured by a snap shot technique. All the data were analyzed by using FlexiVent software.
Different doses (μg/kg) of mepenzolate were administered to the mice via the airway, and one hour after administration, the mice received five exposures to nebulized methacoline, and then, the airway resistance for each dose was measured.
Furthermore, mepenzolate was administered to the mice at a dose of 38 μg/kg. Then, the mice received five exposures to nebulized methacoline at 6 hours, 24 hours, and 48 hours after drug administration. The airway resistance for each time length was measured.

[11] = airway administration, Day 14 (FIG. 3)
[12] = inhalation administration, Day 14 (FIG. 6)
[13] = 38 μg/kg via the airway, ELISA (FIG. 14)
[14] = different doses once via the airway 1 h before PPE, BALF 24 hours after PPE (FIG. 13)
[15] = airway administration, Day 21 (FIG. 9)
[16] = 38 μg/kg once a day by inhalation (FIG. 17)

C[N+]1(C)CCC[C@@H](OC(=O)C(O)(c2ccccc2)c2ccccc2)C1 (racemic) [mepenzolate, mepenzolate bromide]
inflammatory cells (total cell count, neutrophil count) in alveolar lavage fluid [1]: decrease in the inflammatory cells was observed | damage in the alveolar wall ([2]; airway administration once daily for 14 days): improved | mean linear intercept (MLI) ([2]; airway administration once daily for 14 days, Day 14 (FIG. 1, 2)): suppressed | tissue elastance [2, 11]: significantly improved | total respiratory system elastance [2, 11]: significantly improved | damage in the alveolar wall ([2]; inhalation administration once daily for 14 days): improved | mean linear intercept (MLI) ([2]; inhalation administration once daily for 14 days, Day 14 (FIG. 4, 5)): suppressed | tissue elastance [2, 12]: significantly improved | total respiratory system elastance [2, 12]: significantly improved | suppressive effect on mean linear intercept, inhalation compared with airway administration ([2]; inhalation vs airway administration): inhalation administration had a slightly better suppressive effect | recovering effect of vital capacity represented by FEV0.05/FVC reduced by PPE administration [3]: effectively exhibited a recovering effect | KC in the BALF [4, 13]: decreased | MCP-1 in the BALF [4, 13]: decreased | MIP-2 in the BALF [4, 13]: decreased | TNF-α in the BALF [4, 13]: decreased | neutrophil count of the BALF [4, 14]: decreased dependently on the dose | total cell count of the BALF [4, 14]: decreased dependently on the dose | airway resistance induced by methacoline [5]: showed an excellent effect | damage in the alveolar wall ([6]; airway administration once daily from 14 to 20 days after PPE treatment): improved dose-dependently | mean linear intercept ([6]; airway administration once daily from 14 to 20 days after PPE treatment (FIG. 7, 8)): suppressed | tissue elastance [6, 15]: significantly improved | total respiratory system elastance [6, 15]: significantly improved | damage in the lung (H&E, MLI, elastance) [7]: improved damage in the lung | damage in the lung induced by elastase (H&E, MLI, elastance, FEV0.05/FVC) [8]: improved damage in the lung induced by elastase | damage in the alveolar wall ([9]; 38 μg/kg once a day by inhalation): improved | mean linear intercept ([9]; 38 μg/kg once a day by inhalation (FIG. 15, 16)): suppressed | tissue elastance [9, 16]: significantly improved | total respiratory system elastance [9, 16]: significantly improved | airway resistance induced by methacoline, duration of effect ([10]; 38 μg/kg, methacoline at 6, 24 and 48 hours after administration (FIG. 12)): reduced the airway resistance even 24 hours after administration | airway resistance induced by methacoline ([10]; airway administration at 0.04, 0.08, 0.38, 3.8 and 38.0 μg/kg, one hour after administration (FIG. 11)): reduced the airway resistance almost dose-dependently

CN1CCN(CC(=O)N2c3ccccc3C(=O)Nc3cccnc32)CC1 [pirenzepine]
recovering effect of vital capacity represented by FEV0.05/FVC reduced by PPE administration [3]: did not show a significant recovering effect
